Source: US20100323990A1, “SHIP 1 MODULATOR PRODRUGS” (THE UNIVERSITY OF BRITISH COLUMBIA, priority 2006, published 2010)

Experiments:
[1] = system: 100 protein kinase and phosphatase targets; assay: Profiling against 100 protein kinase and phosphatase targets (SignalChem); type: biochemical; details: 2 μM final concentration; changes <25% not considered significant
Experimental: Compound profiling activity was undertaken using 100 protein kinase and phosphatase targets by SignalChem (Richmond, BC, Canada. www.signalchem.com) against compound Compound 100 (2 μM final concentration). Protein kinase assays were performed in the presence of 50 μM ATP at 30° C. for 15 min. Protein phosphatase activites were determined using pNPP as substrate and were also performed at 37° C. for 15 min. The activity of the enzymes in the presence of Compound 100 was compared to that in the vehicle control and expressed as a % change in activity relative to that observed in the vehicle control. Changes in activity of <25% were not considered significant. Enzymes affected by Compound 100 are plotted in an expanded graph in FIG. 12B.

[2] = system: SHIP C2 domain; assay: Protein lipid overlay assay, C2 domain binding to PI-3,4-P2; details: 4 μM Compound 100, 30 min at 23° C.
Experimental: Protein lipid overlay (PLO) assays were performed essentially as described with minor modifications. Lyophilized phosphatidylinositol-3,4-bisphosphate diC16 (PIP2, Echelon Biosciences, Salt Lake City, Utah) was reconstituted in a 2:1.8 solution of methanol and water. PVDF membranes (Millipore, Missisauga, Ont) were initially wetted in methanol for 1 minute, and washed 3×5 min with water, and gently agitated in TBST buffer (20 mM Tris pH 7.5, 0.15 M NaCl (TBS) with 0.05% Tween 20) at 23° C. overnight. Treated membranes were air-dried and dilutions of reconstituted lipids were spotted in 1 μl aliquots to give the indicated amount of PIP2 per membrane spot. Membranes were dried completely and blocked with blocking buffer (3% BSA in TBS with 0.05% NaN3) for 1 h at 23° C. Purified, recombinant C2 domain was diluted into blocking buffer (5 μM final) and treated with 4 μM Compound 100 or EtOH control for 30 min at 23° C. prior to overnight incubation with the PIP2 spotted membranes. […] After washing, bound proteins were detected and quantified on a Li-Cor Odyssey scanner (Lincoln, Nebr.).
Isolated recombinant, His6-tagged C2 domain was expressed and its PI-3,4-P2 binding ability was determined using protein lipid overlay assays. Purified C2 domain was incubated with membrane strips spotted with PI-3,4-P2 and bound protein detected using an anti-His6 antibody. […]

[3] = system: wild-type SHIP; assay: Scintillation proximity assay, wild-type SHIP; type: binding; details: SPA beads
Experimental: Compound 100 was radiolabelled with tritium by GE Healthcare (Piscataway, N.J.) to a specific activity of 42 Ci/mmole. Copper chelate (His-Tag) YSi SPA Scintillation Beads (GE ealthcare, Piscataway, N.J.) were diluted in 0.25% BSA/TBS to 1.5 mg/mL and recombinant, His6-tagged protein added at the indicated concentrations: wild-type (1 pM), ΔC2 SHIP enzyme (1 pM) or C2 domain (10 nM). Protein was allowed to bind 1 h at 23° C., and 250 μg of beads were aliquoted per well of a 96-well plate. 5 μCi of [^3H]-Compound 100 was added per well, the plate gently agitated for 30 min and the amount of bead associated radioactivity quantified by counting in a Wallac BetaPlate plate scintillation counter.
Isolated recombinant, His6-tagged C2 domain was expressed and its PI-3,4-P2 binding ability was determined using protein lipid overlay assays. Purified C2 domain was incubated with membrane strips spotted with PI-3,4-P2 and bound protein detected using an anti-His6 antibody. As shown in FIG. 11C the C2 domain bound PI-3,4-P2 and this binding was inhibited by Compound 100, consistent with both Compound 100 and PI-3,4-P2 interacting with the C2 domain at a common binding site.

[4] = molecular target: T1, ΔC2 SHIP (Homo sapiens, UniProt Q92835, DEL725-863); assay: SHIP enzyme assay with C2 domain deleted SHIP; type: biochemical; details: PI-3,4-P2 20 μM, Compound 100 3 μM, 30 μM IP4
T1 construct: His6; made in house; host or cells: mammalian expression vector pME18S
T1 sequence (Q92835 with tags, fused parts or gaps DEL725-863): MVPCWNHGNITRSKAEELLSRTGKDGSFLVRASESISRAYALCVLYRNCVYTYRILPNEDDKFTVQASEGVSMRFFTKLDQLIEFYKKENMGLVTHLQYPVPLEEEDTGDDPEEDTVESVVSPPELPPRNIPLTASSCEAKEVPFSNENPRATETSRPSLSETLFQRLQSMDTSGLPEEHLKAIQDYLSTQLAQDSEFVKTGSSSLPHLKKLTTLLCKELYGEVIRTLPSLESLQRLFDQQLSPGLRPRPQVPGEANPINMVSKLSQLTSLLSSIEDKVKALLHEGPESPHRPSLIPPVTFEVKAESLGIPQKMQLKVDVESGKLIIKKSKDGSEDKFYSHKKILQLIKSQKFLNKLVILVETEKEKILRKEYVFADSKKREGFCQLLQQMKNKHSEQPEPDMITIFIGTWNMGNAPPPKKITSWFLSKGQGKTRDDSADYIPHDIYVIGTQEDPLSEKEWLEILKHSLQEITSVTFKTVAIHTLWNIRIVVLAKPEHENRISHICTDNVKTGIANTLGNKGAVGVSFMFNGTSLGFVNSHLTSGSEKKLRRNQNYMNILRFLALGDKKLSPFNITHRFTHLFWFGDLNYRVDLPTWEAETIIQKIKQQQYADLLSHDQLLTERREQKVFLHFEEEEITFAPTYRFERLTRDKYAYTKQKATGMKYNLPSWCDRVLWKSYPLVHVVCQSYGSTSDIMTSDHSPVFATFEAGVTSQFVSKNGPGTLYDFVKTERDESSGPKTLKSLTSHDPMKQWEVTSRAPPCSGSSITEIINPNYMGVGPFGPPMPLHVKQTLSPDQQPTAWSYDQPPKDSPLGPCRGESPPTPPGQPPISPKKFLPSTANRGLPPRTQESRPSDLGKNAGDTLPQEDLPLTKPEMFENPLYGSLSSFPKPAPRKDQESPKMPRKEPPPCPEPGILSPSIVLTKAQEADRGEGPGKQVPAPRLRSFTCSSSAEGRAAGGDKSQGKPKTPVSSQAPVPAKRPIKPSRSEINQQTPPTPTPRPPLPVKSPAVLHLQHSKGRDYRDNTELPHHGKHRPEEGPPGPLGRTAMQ
From the text: A His6 tagged SHIP ΔC2 domain deletion mutant (deleting residues 725 to 863) in the mammalian expression vector pME18S was generated by a standard PCR-based methodology. An N-terminal His6 C2 domain construct was also generated by PCR inserted into the pET28C bacterial expression vector using EcoRI and NdeI restriction sites.
The allosteric regulation of enzymes has remained under-appreciated primarily because allosteric effectors are not easy to find. The molecular mechanism by which Compound 100 activated SHIP was investigated, first by performing classical enzyme kinetic analysis of its phosphatase activity. Activity measurements were performed with substrate concentrations from 10-100 μM.
The SHIP protein contains a C2 domain located at the carboxyterminal end of its phosphatase domain. […] SHIP lacking its the C2 domain (ΔC2 SHIP) was prepared.

off-target effects on 100 other kinases and phosphatases [1]: minimal off-target effects | binding of C2 domain to PI-3,4-P2 [2]: inhibited | binding of [3H]-Compound 100 to wild-type SHIP [3]: bound to wild-type SHIP | enhancement of ΔC2 SHIP activity [4]: could not be enhanced
SMILES: Cc1cc(O)cc2c1[C@]1(C)CCC3C(C)(C)CCC[C@]3(C)[C@H]1C2 (stereo partly shown) [Compound 100]
